Here are results for 28 compounds from US20260159533A1, “INHIBITORS OF COMPLEMENT FACTORS AND USES THEREOF” (Annexon, Inc., priority 2022, published 2026).

SMILES strings stand for the structures. Where a name gives a salt, the structure may show the parent alone.

This assay deals with T1, human C1s protein (Homo sapiens, UniProt P09871).
T1 construct: purchased R&D Systems or Complement Technologies 2060-SE or A104
T1 sequence (P09871 16-688): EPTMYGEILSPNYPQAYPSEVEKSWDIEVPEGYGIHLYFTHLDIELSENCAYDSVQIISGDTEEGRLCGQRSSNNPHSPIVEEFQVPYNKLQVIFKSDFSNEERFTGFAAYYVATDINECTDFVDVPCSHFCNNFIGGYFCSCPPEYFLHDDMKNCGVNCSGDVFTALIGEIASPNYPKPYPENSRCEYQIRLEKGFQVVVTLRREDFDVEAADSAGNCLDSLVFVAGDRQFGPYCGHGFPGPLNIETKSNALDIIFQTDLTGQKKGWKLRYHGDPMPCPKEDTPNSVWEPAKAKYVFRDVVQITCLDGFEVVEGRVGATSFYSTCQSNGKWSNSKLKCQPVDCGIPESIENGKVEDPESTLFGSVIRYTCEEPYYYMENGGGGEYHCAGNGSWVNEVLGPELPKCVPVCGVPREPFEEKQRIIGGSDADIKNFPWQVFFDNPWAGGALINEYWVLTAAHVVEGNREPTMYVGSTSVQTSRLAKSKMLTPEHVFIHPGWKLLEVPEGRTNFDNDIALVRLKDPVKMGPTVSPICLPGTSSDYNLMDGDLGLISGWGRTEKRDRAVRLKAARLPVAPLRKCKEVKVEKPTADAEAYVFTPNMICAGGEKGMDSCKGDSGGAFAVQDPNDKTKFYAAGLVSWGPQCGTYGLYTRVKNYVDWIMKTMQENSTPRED
Kind of assay: recombinant C1s enzymatic assay (YLGR-Rh110-dPro substrate hydrolysis, fluorescence). The note with it: recombinant human C1s 2.5 nM, substrate YLGR-Rh110-dPro 20 μM, 15 min pre-incubation, 60 min RT; read-out: rec. hC11s pIC50 (converted). The format is biochemical. As to the method: Compound testing in the purified or recombinant C1s enzymatic assay C1s is a serine protease; its enzymatic activity is measured in vitro by the hydrolysis of the synthetic substrate YLGR-Rh110-dPro (Kerr F K, O'Brien G, Quinsey N S, Whisstock J C, Boyd S, de la Banda M G, Kaiserman D, Matthews A Y, Bird P I, Pike R N. Elucidation of the substrate specificity of the Cis protease of the classical complement pathway. J. Biol. Chem. (2005) 280, 39510-39514). The enzyme cleaves the substrate with the release of Rh110 which is highly fluorescent. Cis inhibitors prevent the hydrolysis of the substrate thus resulting in a decrease of the signal.
The recombinant C1s enzymatic assay is performed using the human C1s protein (R&D Systems, 2060-SE or Complement Technologies, A104). The assay buffer composition is: 50 mM HEPES pH 7.5 (Sigma, H3375), 150 mM NaCl (Sigma, S7653), 0.2% PEG 8000 (VWR, AA43443-22), 0.01% Pluronic F127 (Sigma, P2243). On the day of the experiment 0.1 mg/mL BSA (Sigma, B4287) is added fresh to the buffer. The test item stock solutions are serially diluted 1:3 or 1:4 or 1:5 with DMSO, 11-point curves, in a 384-well compound plate. Nafamostat concentration curve is always included in the assay plate as a reference control.
The assay plate is prepared by dispensing 0.25 μL from compound plate into a 384-well black assay plate (assay plate, Greiner Fluotrac 200, 781076, VWR 736-0140). The high controls are prepared dispensing in 0.25 μL DMSO in column 23, rows AH or AP and low controls with 0.25 μL of 0.1 μM Nafamostat. Cis solution is prepared as 2× of the 2.5 nM final assay concentration. The YLGR-Rh110-dPro substrate is prepared as 2× of the final assay concentration of 20 μM. 5 μL/well of 2× enzyme solution is dispensed and pre-incubated for 15 min with the compounds. The enzymatic reaction is the started with 5 μL/well of the 2× substrate solution. The plate is incubated for 60 min RT in the dark and fluorescence is measured (ex 485/em 535 nm) using an Envision (PerkinElmer) or an equivalent instrument.
`COc1cnn(-c2ccc(B(O)O)cc2-c2ccc3c(N)cnnc3c2)c1` [Example 28, [3-(4-aminocinnolin-7-yl)-4-(4-methoxy-1H-pyrazol-1-yl)phenyl]boronic acid formic acid salt]: the IC50 is 2.19 nM.
Turning to `COc1cc(-n2cc(C(F)F)cn2)c(-c2ccc3c(N)cnnc3c2)cc1B(O)O` [Example 29, [5-(4-aminocinnolin-7-yl)-4-[4-(difluoromethyl)-1H-pyrazol-1-yl]-2-methoxyphenyl]boronic acid formic acid salt], the IC50 is 0.977 nM.
The same measure for `COc1cc(B(O)O)cc(-c2ccc3c(N)cnnc3c2)c1-n1cc(C(F)F)cn1` [Example 30, [3-(4-aminocinnolin-7-yl)-4-[4-(difluoromethyl)-1H-pyrazol-1-yl]-5-methoxyphenyl]boronic acid formic acid salt]: 2.24 nM; for `COc1cc(-c2nc[nH]n2)c(-c2ccc3c(N)cnnc3c2)cc1B(O)O` [Example 31, [5-(4-aminocinnolin-7-yl)-2-methoxy-4-(1H-1,2,4-triazol-3-yl)phenyl]boronic acid]: 1.05 nM; for `COc1cc(-c2ncco2)c(-c2ccc3c(N)cnnc3c2)cc1B(O)O` [Example 32, [5-(4-aminocinnolin-7-yl)-2-methoxy-4-(1,3-oxazol-2-yl)phenyl]boronic acid formic acid salt]: 0.832 nM.
Under `COc1cc(-n2nccn2)c(-c2ccc3c(N)cnnc3c2)cc1B(O)O` [Example 33, [5-(4-aminocinnolin-7-yl)-2-methoxy-4-(2H-1,2,3-triazol-2-yl)phenyl]boronic acid] stands 1.07 nM; under `Nc1cnnc2cc(-c3cc(B(O)O)c(OC4CC(F)(F)C4)cc3-n3cccn3)ccc12` [Example 34, [5-(4-aminocinnolin-7-yl)-2-(3,3-difluorocyclobutoxy)-4-(1H-pyrazol-1-yl)phenyl]boronic acid formic acid salt], 11.5 nM; under `COc1cc(-c2cc[nH]n2)c(-c2ccc3c(N)cnnc3c2)cc1B(O)O` [Example 36, [5-(4-aminocinnolin-7-yl)-2-methoxy-4-(1H-pyrazol-3-yl)phenyl]boronic acid formic acid salt], 1.29 nM.
For the compound `COc1cnn(-c2cc(OC)c(B(O)O)cc2-c2ccc3c(N)cnnc3c2)c1` [Example 37, [5-(4-aminocinnolin-7-yl)-2-methoxy-4-(4-methoxypyrazol-1-yl)phenyl]boronic acid formic acid salt], the IC50 is 0.912 nM.
The same measure for `COc1cc(-c2nccs2)c(-c2ccc3c(N)cnnc3c2)cc1B(O)O` [Example 38, [5-(4-aminocinnolin-7-yl)-2-methoxy-4-thiazol-2-yl-phenyl]boronic acid formic acid salt]: 1.02 nM.
The same measure for `CC(C)Oc1cc(-n2cccn2)c(-c2ccc3c(N)cnnc3c2)cc1B(O)O` [Example 39, [5-(4-aminocinnolin-7-yl)-2-propan-2-yloxy-4-pyrazol-1-ylphenyl]boronic acid formic acid salt]: 2.69 nM.
On to `COc1cc(-n2cc(F)cn2)c(-c2ccc3c(N)cnnc3c2)cc1B(O)O` [Example 40, [5-(4-aminocinnolin-7-yl)-4-(4-fluoropyrazol-1-yl)-2-methoxyphenyl]boronic acid], for which the IC50 is 1.58 nM.
In the case of `Cc1cc(-c2cc[nH]n2)c(-c2ccc3c(N)cnnc3c2)cc1B(O)O` [Example 41, [5-(4-aminocinnolin-7-yl)-2-methyl-4-(1H-pyrazol-3-yl)phenyl]boronic acid], the IC50 was 24.5 nM.
Turning to `Cc1cc(-c2ncco2)c(-c2ccc3c(N)cnnc3c2)cc1B(O)O` [Example 42, [5-(4-aminocinnolin-7-yl)-2-methyl-4-oxazol-2-yl-phenyl]boronic acid formic acid salt], the IC50 is 2.04 nM.
As for `COc1cc(-c2c[nH]cn2)c(-c2ccc3c(N)cnnc3c2)cc1B(O)O` [Example 45, [5-(4-aminocinnolin-7-yl)-4-(1H-imidazol-4-yl)-2-methoxyphenyl]boronic acid], the IC50 was 5.5 nM.
Take `COc1cc(-c2ncc[nH]2)c(-c2ccc3c(N)cnnc3c2)cc1B(O)O` [Example 46, [5-(4-aminocinnolin-7-yl)-4-(1H-imidazol-2-yl)-2-methoxy-phenyl]boronic acid]: the IC50 is 3.89 nM.
The same measure for `COc1cc(-n2cccn2)c(-c2ccc3c(N)nnc(C)c3c2)cc1B(O)O` [Example 47, [5-(1-amino-4-methyl-phthalazin-6-yl)-2-methoxy-4-pyrazol-1-yl-phenyl]boronic acid]: 1.7 nM; for `COc1cc(-n2cccn2)c(-c2ccc3c(N)nccc3c2)cc1B(O)O` [Example 48, [5-(1-amino-6-isoquinolyl)-2-methoxy-4-pyrazol-1-yl-phenyl]boronic acid formic acid salt]: 3.89 nM; for `COc1cc(-c2ncc(C)s2)c(-c2ccc3c(N)cnnc3c2)cc1B(O)O` [Example 50, [5-(4-aminocinnolin-7-yl)-2-Methoxy-4-(5-methylthiazol-2-yl)phenyl]boronic acid formic acid salt]: 1.17 nM.
As to `Cc1cc(-c2nccs2)c(-c2ccc3c(N)cnnc3c2)cc1B(O)O` [Example 53, [5-(4-aminocinnolin-7-yl)-2-methyl-4-thiazol-2-yl-phenyl]boronic acid formic acid salt], the IC50 is 9.55 nM.
Under `COc1cc(-c2cn[nH]c2)c(-c2ccc3c(N)cnnc3c2)cc1B(O)O` [Example 54, [5-(4-aminocinnolin-7-yl)-2-methoxy-4-(1H-pyrazol-4-yl)phenyl]boronic acid] stands 6.31 nM; under `COc1cc(-n2cc(N3CCOCC3)cn2)c(-c2ccc3c(N)cnnc3c2)cc1B(O)O` [Example 58, [5-(4-aminocinnolin-7-yl)-2-methoxy-4-(4-morpholinopyrazol-1-yl)phenyl]boronic acid formic acid salt], 2 nM; under `Nc1cnnc2cc(-c3cc(B(O)O)ccc3-c3ccccn3)ccc12` [Example 63, [3-(4-aminocinnolin-7-yl)-4-(2-pyridyl)phenyl]boronic acid formic acid salt], 15.5 nM.
Under `Nc1cnnc2cc(-c3cc(B(O)O)c(Oc4ccccc4)cc3-n3cccn3)ccc12` [Example 64, [5-(4-aminocinnolin-7-yl)-2-phenoxy-4-pyrazol-1-yl-phenyl]boronic acid formic acid salt] stands 12.3 nM; under `Nc1cnnc2cc(-c3cc(B(O)O)cc4c3-n3nccc3CCO4)ccc12` [Example 65, [[10-(4-aminocinnolin-7-yl)-4,5-dihydropyrazolo[5,1-d][1,5]benzoxazepin-8-yl]boronic acid formic acid salt], 2.4 nM; under `COc1cnc(-c2cc(OC)c(B(O)O)cc2-c2ccc3c(N)cnnc3c2)s1` [Example 68, [5-(4-aminocinnolin-7-yl)-2-methoxy-4-(5-methoxy-1,3-thiazol-2-yl)phenyl]boronic acid formic acid salt], 0.692 nM.
Take `Nc1cnnc2cc(-c3cc4c(cc3-n3cccn3)OCCOB4O)ccc12` [Example 70, 8-(4-aminocinnolin-7-yl)-7-(1H-pyrazol-1-yl)-3,4-dihydro-1H-2,5,1-benzodioxaborepin-1-ol]: the IC50 is 1.26 nM.
The same measure for `CC1COB(O)c2cc(-c3ccc4c(N)cnnc4c3)c(-n3cccn3)cc2O1` (stereo not shown) [Example 71, 7-(1-hydroxy-4-methyl-7-pyrazol-1-yl-3,4-dihydro-2,5,1-benzodioxaborepin-8-yl)cinnolin-4-amine]: 2.09 nM.
